Results as given in patent publication US20130040944A1, “MGLUR4 ALLOSTERIC POTENTIATORS, COMPOSITIONS, AND METHODS OF TREATING NEUROLOGICAL DYSFUNCTION” (VANDERBILT UNIVERSITY, priority 2009, published 2013).

Target: human mGluR4 (Homo sapiens, UniProt Q14833)
Assay: potentiation of human mGluR4 in transfected CHO cells, Ca2+-sensitive dye fluorescence, EC20 agonist
Conditions: for Emax: CHO, read-out: % Glu Max
[1] = hEC50, human mGluR4 potentiation, unit inferred
[2] = EC50 (nM), potentiation of EC20 agonist response, Table I

Chain of human mGluR4 (Q14833 33-912): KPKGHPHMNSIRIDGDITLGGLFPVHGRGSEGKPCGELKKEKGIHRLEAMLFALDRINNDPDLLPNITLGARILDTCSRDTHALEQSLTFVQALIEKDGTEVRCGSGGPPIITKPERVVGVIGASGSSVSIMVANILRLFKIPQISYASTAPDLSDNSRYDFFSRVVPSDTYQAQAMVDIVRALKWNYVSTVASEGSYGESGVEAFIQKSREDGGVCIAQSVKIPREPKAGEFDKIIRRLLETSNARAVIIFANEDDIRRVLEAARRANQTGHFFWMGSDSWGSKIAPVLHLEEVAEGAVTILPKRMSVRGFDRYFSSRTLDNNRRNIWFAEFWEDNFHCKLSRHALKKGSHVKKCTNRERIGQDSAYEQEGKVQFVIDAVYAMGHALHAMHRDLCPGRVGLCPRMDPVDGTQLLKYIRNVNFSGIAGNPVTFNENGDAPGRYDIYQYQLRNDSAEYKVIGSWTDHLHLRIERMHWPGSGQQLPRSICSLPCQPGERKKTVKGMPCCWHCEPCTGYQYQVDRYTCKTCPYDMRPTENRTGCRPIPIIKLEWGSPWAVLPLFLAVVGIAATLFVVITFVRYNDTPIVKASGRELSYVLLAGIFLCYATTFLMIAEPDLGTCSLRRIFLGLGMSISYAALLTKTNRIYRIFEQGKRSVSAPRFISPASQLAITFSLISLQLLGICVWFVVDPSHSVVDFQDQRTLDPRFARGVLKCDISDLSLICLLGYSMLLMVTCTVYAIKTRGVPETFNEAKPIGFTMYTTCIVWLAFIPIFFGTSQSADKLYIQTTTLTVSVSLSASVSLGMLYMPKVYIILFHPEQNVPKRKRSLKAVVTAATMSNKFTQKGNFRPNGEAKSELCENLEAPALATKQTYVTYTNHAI

| Structure (SMILES) | EC50 [1] | Emax | EC50 [2] |
| --- | --- | --- | --- |
| Cc1cccc(S(=O)(=O)n2ccc(NC(=O)c3nccs3)c2)c1 [Example 53, N-(1-(m-tolylsulfonyl)-1H-pyrrol-3-yl)thiazole-2-carboxamide] | 767 nM | – | – |
| O=C(Nc1ccn(S(=O)(=O)Cc2cccc(F)c2)c1)c1ccco1 [Example 91, N-(1-((3-fluorobenzyl)sulfonyl)-1H-pyrrol-3-yl)furan-2-carboxamide] | 6760 nM | – | – |
| COc1cccc(C(=O)Nc2ccn(S(=O)(=O)Cc3ccccc3)c2)c1 [Example 3, N-(1-(benzylsulfonyl)-1H-pyrrol-3-yl)-3-methoxybenzamide] | – | 39% | > 20000 nM |
| O=C(Nc1ccn(S(=O)(=O)c2ccccc2)c1)c1nccs1 [Example 50, N-(1-(phenylsulfonyl)-1H-pyrrol-3-yl)thiazole-2-carboxamide] | 2680 nM | – | – |
| O=C(Nc1ccn(S(=O)(=O)Cc2c(F)cccc2F)c1)c1nccs1 [Example 93, N-(1-((2,6-difluorobenzyl)sulfonyl)-1H-pyrrol-3-yl)thiazole-2-carboxamide] | 343 nM | – | – |
| O=C(Nc1ccn(S(=O)(=O)Cc2ccc(F)cc2Cl)c1)c1ccco1 [Example 61, N-(1-((2-chloro-4-fluorobenzyl)sulfonyl)-1H-pyrrol-3-yl)furan-2-carboxamide] | 320 nM | – | – |
| CC(c1ccccc1)S(=O)(=O)n1ccc(NC(=O)c2ccccn2)c1 (stereo not drawn) [Example 96, N-(1-((1-phenylethyl)sulfonyl)-1H-pyrrol-3-yl)picolinamide] | 2300 nM | – | – |
| O=C(Nc1ccn(S(=O)(=O)Cc2ccccc2)c1)c1nccs1 [Example 44, N-(1-(benzylsulfonyl)-1H-pyrrol-3-yl)thiazole-2-carboxamide] | – | 175% | 4380 nM |
| Cc1ccc(C(=O)Nc2ccn(S(=O)(=O)Cc3ccc(Cl)cc3)c2)nc1 [Example 97, N-(1-((4-chlorobenzyl)sulfonyl)-1H-pyrrol-3-yl)-5-methylpicolinamide] | 431 nM | – | – |
| O=C(Nc1ccn(S(=O)(=O)Cc2ccccc2)c1)c1cccc(F)n1 [Example 41, N-(1-(benzylsulfonyl)-1H-pyrrol-3-yl)-6-fluoropicolinamide] | – | 76% | 574 nM |
| CC(C)(C)OC(=O)C(c1ccccc1)S(=O)(=O)n1ccc(NC(=O)c2ccccn2)c1 (stereo not drawn) [Example 94, tert-butyl 2-phenyl-2-((3-(picolinamido)-1H-pyrrol-1-yl)sulfonyl)acetate] | 14500 nM | – | – |
| O=C(Nc1ccn(S(=O)(=O)Cc2ccccc2Cl)c1)c1csnn1 [Example 66, N-(1-((2-chlorobenzyl)sulfonyl)-1H-pyrrol-3-yl)-1,2,3-thiadiazole-4-carboxamide] | 307 nM | – | – |
| O=C(Nc1ccn(S(=O)(=O)Cc2ccccc2)c1)c1ccncn1 [Example 45, N-(1-(benzylsulfonyl)-1H-pyrrol-3-yl)pyrimidine-4-carboxamide] | – | 57% | > 20000 nM |
| CC(=O)Oc1ccccc1C(=O)Nc1ccn(S(=O)(=O)c2cccc(C)c2)c1 [Example 54, 2-((1-(m-tolylsulfonyl)-1H-pyrrol-3-yl)carbamoyl)phenyl acetate] | 1720 nM | – | – |
| COc1ccc(S(=O)(=O)n2ccc(NC(=O)c3ccco3)c2)cn1 [Example 168, N-(1-((6-methoxypyridin-3-yl)sulfonyl)-1H-pyrrol-3-yl)furan-2-carboxamide] | 2120 nM | – | – |
| O=C(Nc1ccn(S(=O)(=O)Cc2ccccc2)c1)c1nccs1 [Example 63, N-(1-(benzylsulfonyl)-1H-pyrrol-3-yl)thiazole-2-carboxamide] | 2760 nM | – | – |
| O=C(Nc1ccn(S(=O)(=O)Cc2ccccc2)c1)c1cc(F)ccn1 [Example 39, N-(1-(benzylsulfonyl)-1H-pyrrol-3-yl)-4-fluoropicolinamide] | – | 35% | 369 nM |
| Cc1cccc(C)c1S(=O)(=O)n1ccc(NC(=O)c2ccco2)c1 [Example 67, N-(1-((2,6-dimethylphenyl)sulfonyl)-1H-pyrrol-3-yl)furan-2-carboxamide] | 6130 nM | – | – |
| O=C(Nc1ccn(S(=O)(=O)Cc2ccc(F)cc2Cl)c1)c1nccs1 [Example 60, N-(1-((2-chloro-4-fluorobenzyl)sulfonyl)-1H-pyrrol-3-yl)thiazole-2-carboxamide] | 132 nM | – | – |

More lines, now with the values ahead:

| EC50 [1] | Emax | EC50 [2] | Structure (SMILES) |
| --- | --- | --- | --- |
| 133 nM | – | – | CCc1ccc(S(=O)(=O)n2ccc(NC(=O)c3ccccn3)c2)cc1 [Example 122, N-(1-((4-ethylphenyl)sulfonyl)-1H-pyrrol-3-yl)picolinamide] |
| 153 nM | – | – | O=C(Nc1ccn(S(=O)(=O)Cc2c(F)cccc2F)c1)c1ccccn1 [Example 92, N-(1-((2,6-difluorobenzyl)sulfonyl)-1H-pyrrol-3-yl)picolinamide] |
| 2950 nM | – | – | Cc1nc(C)c(S(=O)(=O)n2ccc(NC(=O)c3ccccn3)c2)s1 [Example 127, N-(1-((2,4-dimethylthiazol-5-yl)sulfonyl)-1H-pyrrol-3-yl)picolinamide] |
| 125 nM | – | – | O=C(Nc1ccn(S(=O)(=O)Cc2ccc(F)cc2Cl)c1)c1ccccn1 [Example 57, N-(1-((2-chloro-4-fluorobenzyl)sulfonyl)-1H-pyrrol-3-yl)picolinamide] |
| 285 nM | – | – | COC(=O)c1ccc(S(=O)(=O)n2ccc(NC(=O)c3ccccn3)c2)cc1 [Example 153, Methyl 4-((3-(picolinamido)-1H-pyrrol-1-yl)sulfonyl)benzoate] |
| 16800 nM | – | – | CC(C)(C)c1ccc(S(=O)(=O)n2ccc(NC(=O)c3ccccn3)c2)cc1 [Example 58, N-(1-((4-(tert-butyl)phenyl)sulfonyl)-1H-pyrrol-3-yl)picolinamide] |
| 1070 nM | – | – | O=C(Nc1ccn(S(=O)(=O)c2ccc(N3CCOCC3)nc2)c1)c1ccccn1 [Example 144, N-(1-((6-morpholinopyridin-3-yl)sulfonyl)-1H-pyrrol-3-yl)picolinamide] |
| 686 nM | – | – | O=C(Nc1ccn(S(=O)(=O)c2ccco2)c1)c1ccccn1 [Example 123, N-(1-(furan-2-ylsulfonyl)-1H-pyrrol-3-yl)picolinamide] |
| 228 nM | – | – | Cc1ccc(C)c(S(=O)(=O)n2ccc(NC(=O)c3ccccn3)c2)c1 [Example 81, N-(1-((2,5-dimethylphenyl)sulfonyl)-1H-pyrrol-3-yl)picolinamide] |
| – | 59% | 280 nM | O=C(Nc1ccn(S(=O)(=O)c2ccccc2)c1)c1ccccn1 [Example 4, N-(1-(phenylsulfonyl)-1H-pyrrol-3-yl)picolinamide] |
| 22900 nM | – | – | Cc1cc(C)c(S(=O)(=O)n2ccc(NC(=O)c3ccccn3)c2)cc1Cl [Example 114, N-(1-((5-chloro-2,4-dimethylphenyl)sulfonyl)-1H-pyrrol-3-yl)picolinamide] |
| 550 nM | – | – | O=C(Nc1ccn(S(=O)(=O)c2ccc3[nH]c(=O)sc3c2)c1)c1ccccn1 [Example 158, N-(1-((2-oxo-2,3-dihydrobenzo[d]thiazol-6-yl)sulfonyl)-1H-pyrrol-3-yl)picolinamide] |
| 243 nM | – | – | O=C(Nc1ccn(S(=O)(=O)c2ccc(Cl)cc2F)c1)c1ccccn1 [Example 138, N-(1-((4-chloro-2-fluorophenyl)sulfonyl)-1H-pyrrol-3-yl)picolinamide] |
| 84 nM | – | – | O=C(Nc1ccn(S(=O)(=O)c2cccc(Cl)c2F)c1)c1ccccn1 [Example 124, N-(1-((3-chloro-2-fluorophenyl)sulfonyl)-1H-pyrrol-3-yl)picolinamide] |
| 217 nM | – | – | O=C(Nc1ccn(S(=O)(=O)c2ccc(Cl)nc2)c1)c1ccccn1 [Example 118, N-(1-((6-chloropyridin-3-yl)sulfonyl)-1H-pyrrol-3-yl)picolinamide] |
| – | 67% | 198 nM | Cc1ccccc1S(=O)(=O)n1ccc(NC(=O)c2ccccn2)c1 [Example 9] |
| – | 275% | 562 nM | O=C(Nc1ccn(S(=O)(=O)Cc2ccccc2)c1)c1ccccn1 [Example 2, N-(1-(benzylsulfonyl)-1H-pyrrol-3-yl)picolinamide] |
| 570 nM | – | – | O=C(Nc1ccn(S(=O)(=O)c2ccccc2OC(F)F)c1)c1ccccn1 [Example 73, N-(1-((2-(difluoromethoxy)phenyl)sulfonyl)-1H-pyrrol-3-yl)picolinamide] |
| – | 91% | 222 nM | O=C(Nc1ccn(S(=O)(=O)c2ccccc2Cl)c1)c1ccccn1 [Example 11] |
| 84.3 nM | – | – | O=C(Nc1ccn(S(=O)(=O)c2ccc3occc3c2)c1)c1ccccn1 [Example 150, N-(1-(benzofuran-5-ylsulfonyl)-1H-pyrrol-3-yl)picolinamide] |
| 286 nM | – | – | Cc1c(Cl)cccc1S(=O)(=O)n1ccc(NC(=O)c2ccccn2)c1 [Example 116, N-(1-((3-chloro-2-methylphenyl)sulfonyl)-1H-pyrrol-3-yl)picolinamide] |
| 4020 nM | – | – | O=C(Nc1ccn(S(=O)(=O)c2ccc(C(F)(F)F)c(F)c2)c1)c1ccccn1 [Example 104, N-(1-((3-fluoro-4-(trifluoromethyl)phenyl)sulfonyl)-1H-pyrrol-3-yl)picolinamide] |
| 426 nM | – | – | O=C(Nc1ccn(S(=O)(=O)C(F)c2ccccc2F)c1)c1ccccn1 (stereo not drawn) [Example 105, N-(1-((fluoro(2-fluorophenyl)methyl)sulfonyl)-1H-pyrrol-3-yl)picolinamide] |
| 230 nM | – | – | COc1cccc(S(=O)(=O)n2ccc(NC(=O)c3ccccn3)c2)c1 [Example 88, N-(1-((3-methoxyphenyl)sulfonyl)-1H-pyrrol-3-yl)picolinamide] |
| 253 nM | – | – | O=C(Nc1ccn(S(=O)(=O)c2cnc3ccccc3c2)c1)c1ccccn1 [Example 136, N-(1-(quinolin-3-ylsulfonyl)-1H-pyrrol-3-yl)picolinamide] |
| 21100 nM | – | – | Cc1cc(S(=O)(=O)n2ccc(NC(=O)c3ccccn3)c2)c(Cl)cc1Cl [Example 108, N-(1-((2,4-dichloro-5-methylphenyl)sulfonyl)-1H-pyrrol-3-yl)picolinamide] |
| 336 nM | – | – | O=C(Nc1ccn(S(=O)(=O)Cc2ccc(Cl)cc2)c1)c1ccccn1 [Example 95, N-(1-((4-chlorobenzyl)sulfonyl)-1H-pyrrol-3-yl)picolinamide] |
| – | 101% | 526 nM | O=C(Nc1ccn(S(=O)(=O)c2ccccc2C(F)(F)F)c1)c1ccccn1 [Example 10] |
